How the values were obtained:
HBV [1] = assay: Anti-HBV activity, HepG2.2.15 stable transfected cell line, HBV DNA from secreted virions by realtime PCR; format: cell-based; conditions: Hepatitis B virus, HepG2.2.15, 144 h, HepG2.2.15 cells, 6 days of treatment, HBV DNA from secreted virions; read-out: HepG2 2.15 EC50
[2] = Cytotoxicity in HepG2 cells, Resazurin viability assay; conditions: human, HepG2 cells, HepG2 4 days CC50 (μM), incubated for 4 days, Resazurin assay
HBV [3] = assay: Anti-HBV activity, HepG2.117 inducibly HBV producing cell line (Tet-off), intracellular HBV DNA by realtime PCR; format: cell-based; conditions: Hepatitis B virus, HepG2.117, 72 h, HepG2.117 cells, 3 days of treatment, intracellular HBV DNA; read-out: HepG2 117 EC50

SMILES | EC50 (HBV [1]) | CC50 at 4 days [2] | EC50 (HBV [3])
C[C@@H](NS(=O)(=O)c1cc(C(=O)Nc2cccc(C#N)c2F)n(C)c1)C(F)(F)F [Compound 160, N-(3-Cyano-2-fluorophenyl)-1-methyl-4-{[(1R)-2,2,2-trifluoro-1-methylethyl]sulfamoyl}-1H-pyrrole-2-carboxamide] | 160 nM | > 25 µM | 130 nM
Cn1cc(S(=O)(=O)NC2(C(F)(F)F)CCCC2)c(F)c1C(=O)Nc1ccc(F)c(C#N)c1 [Compound 281, N-(3-cyano-4-fluoro-phenyl)-3-fluoro-1-methyl-4-[[1-(trifluoro-methyl)cyclopentyl]sulfamoyl]pyrrole-2-carboxamide] | < 4 nM | > 25 µM | 7 nM
CC(NS(=O)(=O)c1cc(C(=O)Nc2ccc(F)c(C#N)c2)n(C)c1)C(F)F (single isomer, unassigned) [Compound 200a, N-(3-Cyano-4-fluorophenyl)-4-{[2,2-difluoro-1-methylethyl]sulfamoyl}-1-methyl-1H-pyrrole-2-carboxamide] | 100 nM | > 25 µM | 50 nM
Cn1cc(S(=O)(=O)NC2(C(F)(F)F)CCC2)cc1C(=O)Nc1ccc(F)c(Cl)c1F [Compound 263, N-(3-chloro-2,4-difluoro-phenyl)-1-methyl-4-{[1-(trifluoromethyl)-cyclobutyl]sulfamoyl}-1H-pyrrole-2-carboxamide] | 5 nM | > 25 µM | 8 nM
Cc1c(F)ccc(NC(=O)c2cc(S(=O)(=O)N[C@H](C)C(F)(F)F)cn2C)c1F [Compound 116, N-(2,4-Difluoro-3-methylphenyl)-1-methyl-4-{[(1R)-2,2,2-trifluoro-1-methylethyl]sulfamoyl}-1H-pyrrole-2-carboxamide] | 30 nM | > 25 µM | 20 nM
Cc1cc(NC(=O)c2cc(S(=O)(=O)NC(C)(C)C(N)=O)cn2C)ccc1F [Compound 64, 4-[(2-amino-1,1-dimethyl-2-oxo-ethyl)sulfamoyl]-N-(4-fluoro-3-methyl-phenyl)-1-methyl-pyrrole-2-carboxamide] | 130 nM | > 25 µM | 50 nM
CC[C@@H](C)NS(=O)(=O)c1cc(C(=O)Nc2ccc(F)c(F)c2)n(C)c1 [Compound 23, N-(3,4-difluorophenyl)-1-methyl-4-[[(1R)-1-methylpropyl]sulfamoyl]pyrrole-2-carboxamide] | 20 nM | > 25 µM | 130 nM
C[C@@H](NS(=O)(=O)c1cc(C(=O)Nc2ccc(F)c(C(F)(F)F)c2)n(C)c1)C(F)(F)F [Compound 125, N-[4-Fluoro-3-(trifluoromethyl)phenyl]-1-methyl-4-{[(1R)-2,2,2-trifluoro-1-methylethyl]sulfamoyl}-1H-pyrrole-2-carboxamide] | 190 nM | 16.7 µM | 80 nM
Cc1cc(NC(=O)c2cc(S(=O)(=O)NC(C)C)cn2C)ccc1F [Compound 2, N-(4-fluoro-3-methyl-phenyl)-4-(isopropylsulfamoyl)-1-methyl-pyrrole-2-carboxamide] | 30 nM | > 25 µM | 60 nM
Cc1cc(NC(=O)c2cc(S(=O)(=O)NC3(CCO)COC3)cn2C)ccc1F [Compound 14, N-(4-fluoro-3-methyl-phenyl)-4-[[3-(2-hydroxyethyl)oxetan-3-yl]sulfamoyl]-1-methyl-pyrrole-2-carboxamide] | 40 nM | > 25 µM | 20 nM
Cc1cc(NC(=O)c2cc(S(=O)(=O)NC3(C)COC3)cn2C)ccc1C#N [Compound 83] | > 1000 nM | > 25 µM | 1350 nM
Cc1cc(NC(=O)c2cc(S(=O)(=O)NC3(C)COC3)cn2C)cc(F)c1F [Compound 35, N-(3,4-difluoro-5-methyl-phenyl)-1-methyl-4-[(3-methyloxetan-3-yl)-sulfamoyl]pyrrole-2-carboxamide] | 30 nM | > 25 µM | 20 nM
Cn1cc(S(=O)(=O)NC2(C)COC2)cc1C(=O)Nc1cccc(C(F)(F)F)c1 [Compound 28, 1-methyl-4-[(3-methyloxetan-3-yl)sulfamoyl]-N-[3-(trifluoromethyl)-phenyl]pyrrole-2-carboxamide] | 100 nM | > 25 µM | 140 nM
CC[C@@H](C)NS(=O)(=O)c1cc(C(=O)Nc2ccc(F)c(C#N)c2)n(C)c1 [Compound 294, N-(3-cyano-4-fluoro-phenyl)-1-methyl-4-[[(1R)-1-methylpropyl]-sulfamoyl]pyrrole-2-carboxamide] | 40 nM | > 25 µM | 100 nM
Cn1cc(S(=O)(=O)NC2(C(F)(F)F)CCC2)c(Cl)c1C(=O)Nc1ccc(F)c(Cl)c1 [Compound 268, 3-chloro-N-(3-chloro-4-fluoro-phenyl)-1-methyl-4-{[1-(trifluoro-methyl)cyclobutyl]sulfamoyl}-1H-pyrrole-2-carboxamide] | 5 nM | > 25 µM | 6 nM
Cn1cc(S(=O)(=O)NC(C)(C)C(F)(F)F)cc1C(=O)Nc1ccc(F)c(F)c1 [Compound 95, N-(3,4-Difluorophenyl)-1-methyl-4-[(2,2,2-trifluoro-1,1-dimethylethyl)-sulfamoyl]-1H-pyrrole-2-carboxamide] | 130 nM | > 25 µM | 60 nM
Cc1cc(NC(=O)c2cc(S(=O)(=O)N[C@@H](C)C(F)(F)F)cn2C)ccc1F [Compound 8, N-(4-fluoro-3-methyl-phenyl)-1-methyl-4-[[(1S)-2,2,2-trifluoro-1-methyl-ethyl]sulfamoyl]pyrrole-2-carboxamide] | 20 nM | > 25 µM | 20 nM
Cc1c(F)ccc(NC(=O)c2c(F)c(S(=O)(=O)NC3(C)COC3)cn2C)c1F [Compound 110, N-(2,4-Difluoro-3-methylphenyl)-3-fluoro-1-methyl-4-[(3-methyloxetan-3-yl)sulfamoyl]-1H-pyrrole-2-carboxamide] | 20 nM | > 25 µM | 30 nM
Cc1c(S(=O)(=O)N[C@H](C)C(F)(F)F)c(C#N)c(C(=O)Nc2ccc(F)c(C#N)c2)n1C [Compound 316, 3-cyano-N-(3-cyano-4-fluoro-phenyl)-1,5-dimethyl-4-[[(1R)-2,2,2-trifluoro-1-methyl-ethyl]sulfamoyl]pyrrole-2-carboxamide] | 50 nM | > 25 µM | 50 nM
Cc1c(S(=O)(=O)NC2(C)COC2)cn(C)c1C(=O)Nc1cc(F)c(F)c(Cl)c1 [Compound 201, N-(3-Chloro-4,5-difluorophenyl)-1,3-dimethyl-4-[(3-methyloxetan-3-yl)sulfamoyl]-1H-pyrrole-2-carboxamide] | 70 nM | > 25 µM | 20 nM
Cn1cc(S(=O)(=O)NC2(C(F)(F)F)CCOC2)cc1C(=O)Nc1ccc(F)c(Cl)c1F (stereo not drawn) [Compound 266, N-(3-chloro-2,4-difluoro-phenyl)-1-methyl-4-{[3-(trifluoromethyl)-tetrahydrofuran-3-yl]sulfamoyl}-1H-pyrrole-2-carboxamide] | 20 nM | > 25 µM | 30 nM
Cn1cc(S(=O)(=O)NC(C)(C)C)cc1C(=O)Nc1cc(F)cc(C#N)c1 [Compound 53, 4-(tert-butylsulfamoyl)-N-(3-cyano-5-fluoro-phenyl)-1-methyl-pyrrole-2-carboxamide] | 260 nM | > 25 µM | 180 nM
Cn1cc(S(=O)(=O)NC(CF)CF)cc1C(=O)Nc1ccc(F)c(C#N)c1 [Compound 242, N-(3-Cyano-4-fluorophenyl)-4-{[2-fluoro-1-(fluoromethyl)ethyl]sulfamoyl}-1-methyl-1H-pyrrole-2-carboxamide] | 200 nM | > 25 µM | 300 nM
Cc1c(S(=O)(=O)N[C@H](C)C(F)(F)F)cc(C(=O)Nc2ccc(F)c(C#N)c2)n1C [Compound 140, N-(3-Cyano-4-fluorophenyl)-1,5-dimethyl-4-{[(1R)-2,2,2-trifluoro-1-methylethyl]sulfamoyl}-1H-pyrrole-2-carboxamide] | 100 nM | > 25 µM | 60 nM
CCC(CC)(NS(=O)(=O)c1cc(C(=O)Nc2ccc(F)c(C#N)c2)n(C)c1)C(F)(F)F [Compound 248, N-(3-cyano-4-fluoro-phenyl)-4-{[1-ethyl-1-(trifluoromethyl)propyl]sulfamoyl}-1-methyl-1H-pyrrole-2-carboxamide] | 30 nM | > 25 µM | 70 nM
Cc1cc(NC(=O)c2cc(S(=O)(=O)NC3(C)COC3)cn2C)ccc1Cl [Compound 77, N-(4-Chloro-3-methylphenyl)-1-methyl-4-[(3-methyloxetan-3-yl)sulfamoyl]-1H-pyrrole-2-carboxamide] | 70 nM | > 25 µM | 180 nM
Cc1c(S(=O)(=O)NC(C)C)cn(C)c1C(=O)Nc1ccc(F)c(Cl)c1F [Compound 208, N-(3-Chloro-2,4-difluorophenyl)-1,3-dimethyl-4-[(1-methylethyl)sulfamoyl]-1H-pyrrole-2-carboxamide] | 200 nM | > 25 µM | 660 nM
Cn1cc(S(=O)(=O)NC(C)(C)C(F)(F)F)c(Cl)c1C(=O)Nc1ccc(F)c(C#N)c1 [Compound 270, 3-Chloro-N-(3-cyano-4-fluorophenyl)-1-methyl-4-[(2,2,2-trifluoro-1,1-dimethylethyl)sulfamoyl]-1H-pyrrole-2-carboxamide] | 60 nM | > 25 µM | 110 nM
